Patent US20120059036A1, “METHOD FOR REDUCING THROMBOCYTOPENIA AND THROMBOCYTOPENIA-ASSOCIATED MORTALITY” (priority 2008, published 2012)

What was measured:
[1] = tested on: patients experiencing ST-segment elevation myocardial infarction (STEMI); assay: […] Phase III study: clinical outcomes (death, reinfarction, revascularization, stent thrombosis) at 30 days and 8 months; type: in vivo, human; settings: for probability of death/MI: within eight months after treatment, intent-to-treat population
Experimental: (§1) The inclusion criteria were (1) chest pain for longer than 30 minutes with an electrocardiographic ST-segment elevation of 1 mm or greater in two or more contiguous electrocardiogram leads, or with a new left bundle-branch block, and (2) admission either within 12 hours of symptom onset or between 12 and 24 hours after onset with evidence of continuing ischemia. The exclusion criteria included administration of fibrinolytics in the previous 30 days, major surgery within 15 days, and active bleeding or previous stroke in the last six months. Immediately after eligibility criteria were met and before the visualization of coronary arteries through angiography, the treating physician at each investigational site performed open-label assignments of study treatments via sealed envelopes.
(§2) This type of regimen is described in U.S. Pat. No. 6,770,660. Abciximab was administered in a 0.25 mg/kg bolus, followed by 0.125 μg/kg/min continuous infusion for 12 hours. The administration of both drugs began at first medical contact, before arterial sheath insertion. Heparin was given at 40 to 70 U/kg, targeting an activated clotting time of at least 200 seconds. Patients received aspirin (160-325 mg orally or 250 mg intravenously, followed by 80-125 mg/d orally indefinitely) and clopidogrel (300 mg orally and then 75 mg/d for at least three months).
(§3) A 12-lead electrocardiogram was recorded before the procedure and 90 minutes after the last balloon inflation in the infarct-related artery. Follow-up visits were scheduled at one, four, and eight months.
(§4) The data for all patients with primary end-point events were reviewed by an independent adjudication committee whose members were blinded to treatment assignments. Events adjudication was performed separately by two members, and in case of disagreement, the opinion of the third member was obtained and the final decision taken by consensus. The committee was also responsible for the adjudication of all clinical events according to the Academic Research Consortium.^18
(§5) Discrete data were summarized as frequencies, and comparisons were made with the likelihood-ratio χ^2 test or Fisher exact test. Continuous data were expressed as mean (SD) or median and interquartile range according to their distribution; comparisons were made with a one-way analysis of variance or the Kruskal-Wallis test.

[2] = tested on: patients experiencing ST-segment elevation myocardial infarction (STEMI); assay: […] primary end point: at least 50% resolution of ST-segment elevation on 12-lead electrocardiogram 90 minutes after PCI; type: in vivo, human; settings: for percentage of patients achieving at least 50% ST-segment resolution / patients achieving at least 50% ST-segment resolution: intention-to-treat analysis, within 90 minutes following PCI; for patients achieving at least 50% ST-segment resolution: out of 361 patients
Experimental: as §1, §2, §3
Changes in the ST-segment of the electrocardiogram were evaluated cumulatively before and 90 minutes after intervention. ST-segment elevation was measured to the nearest 0.5 mm at 60 milliseconds after the J point by a single experienced cardiologist who was blinded to treatment assignments. […] Quantitative angiographic analyses were performed with a validated edge-detection system (CAAS II; Pie Medical, Maastricht, the Netherlands), and coronary flow was classified according to Thrombolysis in Myocardial Infarction (TIMI) criteria. Angiographic analyses and TIMI grading were performed by one independent cardiologist who was blinded to treatment assignments.
This was based on both intention-to-treat and per-protocol principles and was applied to an exploratory analysis across several prespecified subgroups. The Cochran-Mantel-Haenszel χ^2 test was performed to evaluate possible imbalances of the relative risk among different recruiting centers.

[3] = tested on: patients experiencing ST-segment elevation myocardial infarction (STEMI); assay: MULTISTRATEGY safety analysis: bleeding, transfusion, thrombocytopenia and thrombocytopenia-associated mortality; settings: for Major bleeding / Minor bleedng / Moderate thrombocytoperia (<100000 cells/mm^3) / Red blood cells transfusion ≧1 Units / Red blood cells transfusion ≧2 Units / Severe thrombocytoperia (<50000 cells/mm^3): At 30 d, safety analysis
Experimental: as §1, §2, §4, §5

[4] = At 8 mo, number of patients with event
[5] = At 30 d, number of patients with event

CCCCS(=O)(=O)N[C@@H](Cc1ccc(OCCCCC2CCNCC2)cc1)C(=O)O.Cl.O [Tirofiban Plus Uncoated Stent]
Clinically driven target-vessel revascularization ([1]; At 8 mo, Kaplan-Meier estimate): (9.1) %
Composite of death, reinfarction, or target-vessel revascularization ([1]; At 8 mo, Kaplan-Meier estimate): (12.9) %
Death ([1]; At 8 mo, Kaplan-Meier estimate): (3.8) %
Death or reinfarction ([1]; At 8 mo, Kaplan-Meier estimate): (6.5) %
Definite or probable or possible stent thrombosis ([1]; At 8 mo, Kaplan-Meier estimate): (4.3) %
Definite or probable stent thrombosis ([1]; At 8 mo, Kaplan-Meier estimate): (3.2) %
Definite stent thrombosis ([1]; At 8 mo, Kaplan-Meier estimate): (2.2) %
Possible stent thrombosis ([1]; At 8 mo, Kaplan-Meier estimate): (1.6) %
Reinfarction ([1]; At 8 mo, Kaplan-Meier estimate): (4.3) %
Clinically driven target-vessel revascularization [1, 4]: 17 No.
Composite of death, reinfarction, or target-vessel revascularization [1, 4]: 24 No.
Death [1, 4]: 7 No.
Death or reinfarction [1, 4]: 12 No.
Definite or probable or possible stent thrombosis [1, 4]: 8 No.
Definite or probable stent thrombosis [1, 4]: 6 No.
Definite stent thrombosis [1, 4]: 4 No.
Possible stent thrombosis [1, 4]: 3 No.
Reinfarction [1, 4]: 8 No.
Clinically driven target-vessel revascularization ([1]; At 30 d, Kaplan-Meier estimate): (1.6) %
Composite of death, reinfarction, or target-vessel revascularization ([1]; At 30 d, Kaplan-Meier estimate): (3.8) %
Death ([1]; At 30 d, Kaplan-Meier estimate): (1.1) %
Death or reinfarction ([1]; At 30 d, Kaplan-Meier estimate): (3.8) %
Definite or probable stent thrombosis ([1]; At 30 d, Kaplan-Meier estimate): (2.7) %
Definite stent thrombosis ([1]; At 30 d, Kaplan-Meier estimate): (1.6) %
Probable stent thrombosis ([1]; At 30 d, Kaplan-Meier estimate): (1.1) %
Reinfarction ([1]; At 30 d, Kaplan-Meier estimate): (2.7) %
Clinically driven target-vessel revascularization [1, 5]: 3 No.
Composite of death, reinfarction, or target-vessel revascularization [1, 5]: 7 No.
Death [1, 5]: 2 No.
Death or reinfarction [1, 5]: 7 No.
Definite or probable stent thrombosis [1, 5]: 5 No.
Definite stent thrombosis [1, 5]: 3 No.
Probable stent thrombosis [1, 5]: 2 No.
Reinfarction [1, 5]: 5 No.

CCCCS(=O)(=O)N[C@@H](Cc1ccc(OCCCCC2CCNCC2)cc1)C(=O)O.Cl [Tirofiban, N-(butylsulfonyl)-O-[4-(4-piperidinyl)butyl]-tyrosine monohydrochloride]
recovery from ST-segment elevation after coronary intervention in comparison with abciximab ([2]; consistent across recruiting centers and prespecified subgroups): noninferior
percentage of patients achieving at least 50% ST-segment resolution [2]: 85.3%
patients achieving at least 50% ST-segment resolution [2]: 308 patients
Clinically driven target-vessel revascularization ([1]; At 8 mo, Kaplan-Meier estimate): (6.2) %
Composite of death, reinfarction, or target-vessel revascularization ([1]; At 8 mo, Kaplan-Meier estimate): (9.9) %
Death ([1]; At 8 mo, Kaplan-Meier estimate): (3.0) %
Death or reinfarction ([1]; At 8 mo, Kaplan-Meier estimate): (5.9) %
Definite or probable or possible stent thrombosis ([1]; At 8 mo, Kaplan-Meier estimate): (3.8) %
Definite or probable stent thrombosis ([1]; At 8 mo, Kaplan-Meier estimate): (3.2) %
Definite stent thrombosis ([1]; At 8 mo, Kaplan-Meier estimate): (2.7) %
Possible stent thrombosis ([1]; At 8 mo, Kaplan-Meier estimate): (0.8) %
Reinfarction ([1]; At 8 mo, Kaplan-Meier estimate): (4.3) %
Clinically driven target-vessel revascularization [1, 4]: 23 No.
Composite of death, reinfarction, or target-vessel revascularization [1, 4]: 37 No.
Death [1, 4]: 11 No.
Death or reinfarction [1, 4]: 22 No.
Definite or probable or possible stent thrombosis [1, 4]: 14 No.
Definite or probable stent thrombosis [1, 4]: 12 No.
Definite stent thrombosis [1, 4]: 10 No.
Possible stent thrombosis [1, 4]: 3 No.
Reinfarction [1, 4]: 16 No.
Clinically driven target-vessel revascularization ([1]; At 30 d, Kaplan-Meier estimate): (2.2) %
Composite of death, reinfarction, or target-vessel revascularization ([1]; At 30 d, Kaplan-Meier estimate): (4.0) %
Death ([1]; At 30 d, Kaplan-Meier estimate): (1.1) %
Death or reinfarction ([1]; At 30 d, Kaplan-Meier estimate): (3.8) %
Definite or probable stent thrombosis ([1]; At 30 d, Kaplan-Meier estimate): (2.4) %
Definite stent thrombosis ([1]; At 30 d, Kaplan-Meier estimate): (1.9) %
Probable stent thrombosis ([1]; At 30 d, Kaplan-Meier estimate): (0.5) %
Reinfarction ([1]; At 30 d, Kaplan-Meier estimate): (2.7) %
Clinically driven target-vessel revascularization [1, 5]: 8 No.
Composite of death, reinfarction, or target-vessel revascularization [1, 5]: 15 No.
Death [1, 5]: 4 No.
Death or reinfarction [1, 5]: 14 No.
Definite or probable stent thrombosis [1, 5]: 9 No.
Definite stent thrombosis [1, 5]: 7 No.
Probable stent thrombosis [1, 5]: 2 No.
Reinfarction [1, 5]: 10 No.
incidence of MACE ([1]; At 30 days): 4.0%
incidence of MACE ([1]; At eight months): 9.9%
probability of death/MI [1]: 5.9%

Abciximab: inhibitor of the glycoprotein (GP) IIb/IIIa receptor complex; comparator drug
percentage of patients achieving at least 50% ST-segment resolution [2]: 83.6%
patients achieving at least 50% ST-segment resolution [2]: 302 patients
Clinically driven target-vessel revascularization ([1]; At 8 mo, Kaplan-Meier estimate): (7.3) %
Composite of death, reinfarction, or target-vessel revascularization ([1]; At 8 mo, Kaplan-Meier estimate): (12.4) %
Death ([1]; At 8 mo, Kaplan-Meier estimate): (4.0) %
Death or reinfarction ([1]; At 8 mo, Kaplan-Meier estimate): (7.5) %
Definite or probable or possible stent thrombosis ([1]; At 8 mo, Kaplan-Meier estimate): (4.3) %
Definite or probable stent thrombosis ([1]; At 8 mo, Kaplan-Meier estimate): (3.5) %
Definite stent thrombosis ([1]; At 8 mo, Kaplan-Meier estimate): (2.7) %
Possible stent thrombosis ([1]; At 8 mo, Kaplan-Meier estimate): (1.1) %
Reinfarction ([1]; At 8 mo, Kaplan-Meier estimate): (3.5) %
Clinically driven target-vessel revascularization [1, 4]: 27 No.
Composite of death, reinfarction, or target-vessel revascularization [1, 4]: 46 No.
Death [1, 4]: 15 No.
Death or reinfarction [1, 4]: 28 No.
Definite or probable or possible stent thrombosis [1, 4]: 16 No.
Definite or probable stent thrombosis [1, 4]: 13 No.
Definite stent thrombosis [1, 4]: 10 No.
Possible stent thrombosis [1, 4]: 4 No.
Reinfarction [1, 4]: 13 No.
Clinically driven target-vessel revascularization ([1]; At 30 d, Kaplan-Meier estimate): (1.6) %
Composite of death, reinfarction, or target-vessel revascularization ([1]; At 30 d, Kaplan-Meier estimate): (4.3) %
Death ([1]; At 30 d, Kaplan-Meier estimate): (2.4) %
Death or reinfarction ([1]; At 30 d, Kaplan-Meier estimate): (3.8) %
Definite or probable stent thrombosis ([1]; At 30 d, Kaplan-Meier estimate): (2.2) %
Definite stent thrombosis ([1]; At 30 d, Kaplan-Meier estimate): (1.3) %
Probable stent thrombosis ([1]; At 30 d, Kaplan-Meier estimate): (0.8) %
Reinfarction ([1]; At 30 d, Kaplan-Meier estimate): (1.3) %
Clinically driven target-vessel revascularization [1, 5]: 6 No.
Composite of death, reinfarction, or target-vessel revascularization [1, 5]: 16 No.
Death [1, 5]: 9 No.
Death or reinfarction [1, 5]: 14 No.
Definite or probable stent thrombosis [1, 5]: 8 No.
Definite stent thrombosis [1, 5]: 5 No.
Probable stent thrombosis [1, 5]: 3 No.
Reinfarction [1, 5]: 5 No.
incidence of MACE ([1]; At 30 days): 4.37%
incidence of MACE ([1]; At eight months): 12.4%
probability of death/MI [1]: 7.5%
Major bleeding [3]: (1.6) %
Minor bleedng [3]: (6.2) %
Moderate thrombocytoperia (<100000 cells/mm^3) [3]: (1.6) %
Red blood cells transfusion ≧1 Units [3]: (2.2) %
Red blood cells transfusion ≧2 Units [3]: (2.2) %
Severe thrombocytoperia (<50000 cells/mm^3) [3]: (2.4) %
Major bleeding ([3]; number of patients): 6 No.
Minor bleedng ([3]; number of patients): 23 No.
Moderate thrombocytoperia (<100000 cells/mm^3) ([3]; number of patients): 6 No.
Red blood cells transfusion ≧1 Units ([3]; number of patients): 8 No.
Red blood cells transfusion ≧2 Units ([3]; number of patients): 8 No.
Severe thrombocytoperia (<50000 cells/mm^3) ([3]; number of patients): 9 No.
TIMI major and minor bleeding ([3]; At 30 days): 7.8%
incidence of severe or moderate thrombocytopenia ([3]; At 30 days): 4.0%
mortality rates of nonthrombocytopenic patients ([3]; HDB tirofiban compared with abciximab, follow-up, FIG. 3): virtually identical
patients with drug-induced thrombocytopenia who died ([3]; within eight months, FIG. 3): 20%
